Assay results: patent US5998366A, “Method for ameliorating glutamic acid decarboxylase associated autoimmune disorders” (The Regents of the University of California, priority 1997, dated 1999)

Columns and labels:
spleen cells of NOD mice = assay: Proliferative recall response of spleen cells to β-cell antigens, by age; type: cell-based; settings: female NOD mice, 10 μg/ml antigen or 7 μM peptide, 72 h culture (FIG. 8)
Experimental: NOD (Taconic farms) and BALB/c mice (Jackson Laboratories) were kept under specific pathogen free conditions. The mice were sacrificed at the ages indicated and the spleen cells were tested directly ex vivo for their proliferative recall response to antigen. Single cell suspensions of spleen cells were plated at 1×10^6 cells per well in 96 well microtiter plates in 200 μl serum free HL-1 medium (Ventrex) that was supplemented with 2 mM glutamine with or without 10 μg/ml antigen (or 7 μM peptide) in triplicate cultures. During the last 16 h of the 72 h culture period, 1 μCi[^3 H]-thymidine was added per well. Incorporation of label was measured by liquid scintillation counting.
Both human GAD65 (Bu, et al., Proc. Natl. Acad. Sci., 89:2115-2119, 1992) and E. coli β-gal (control) were purified from recombinant bacteria on the basis of a hexahistidine tag which allows their rapid affinity purification by metal affinity chromatography (Hochuli, et al., Bio/Technology, 6:1321-1325, 1988). Bovine CPH was the generous gift of L. Fricker (Albert Einstein Col. Med.) and human insulin was purchased from Eli Lilly.

[1] = target: T1, 64 kD pancreatic polypeptide (Homo sapiens, UniProt Q05329); assay: Prior absorption of patient sera, then immunoprecipitation of the 64 kD islet cell polypeptide; type: binding
T1 construct: antibodies which recognize specific polypeptides produced in human pancreatic islet cells; endogenous in cells; host or cells: human pancreatic islet cells from cadaveric pancreas, metabolically labelled with 35S-methionine
From the text: 4. Human Islet Cells. Human pancreatic islets were isolated from cadaveric pancreases and maintained in vitro as previously described (Ricordi, et al., Diabetes, 37:413-420, 1988). The islet cells were metabolically labeled with ^35 S methionine (Amersham, Arlington Heights, Ill.) in vitro (95% air/5%CO2).
5. Islet Cell Extractions and Immunoprecipitations. Islet cells were extracted as previously described by Atkinson, et al. (Lancet, 335:1357-1360, 1990) with the following modifications. […] Following another incubation with protein A Sepharose CL-4B (1 h, 4° C.), the complexes were then washed 5 times with 50 mM Tris HCL (pH 7.4) with 0.1% SDS, 1.0% Triton X-114, and 2 mM EDTA, and then washed again one time in double distilled water. The protein A Sepharose CL-4B was then boiled in Laemmli sample buffer (Laemmli, Nature, 227:680-685, 1970), and the samples were subjected to SDS-PAGE and fluororadiography (Kodak, X-omat AR5) using Enhance (New England Nuclear). Alternatively, the autoradiographs were analyzed by a BETAGEN (Boston, Mass.) analyzer. Both 64 KA positive and negative sera were used in each assay, to serve as interassay controls. All fluororadiographs were analyzed and rated as positive or negative after comparison with the known interassay controls.

[2] = system: IDDM autoantibodies in sera of human patients; assay: Immunoprecipitation of 35S-labeled GAD65 segments by IDDM patient sera; type: binding; settings: 22 IDDM patient sera, 30 μl serum
From the text: Portions of human GAD65 cDNA were amplified by the polymerase chain reaction (PCR; Saiki, et al., Science, 239:487, 1988) to produce DNA segments encoding three polypeptide segments: amino acid residues 1-224 (segment A); 224-398 (segment B); and 398-585 (segment C). Each construct also contained a T7 promoter, a consensus sequence for the initiation of translation and an initiating methionine codon (Korak, M., J. Cell Biol., 108:229, 1989). Each PCR product was then trascribed in vitro with T7 RNA polymerase and translated in vitro in a rabbit reticulocyte cell-free system in the presence of ^35 S-methionine, using conditions recommended by the supplier (Amersham Corp., Arlington Heights, Ill.). Each test serum (30 μl) was incubated with the resulting ^35 S labeled-polypeptides. The bound peptides were isolated with PAS and analyzed by SDS-PAGE in 12% polyaacrylamide and autoradiography.

female NOD mice [3] = assay: GAD immunization of 8 week old NOD mice, onset of IDDM; type: in vivo; settings: again every 6 weeks
From the text: An IPTG inducible T7 expression vector was used to express both human GAD65 and E. coli b galactosidase (β-gal). In IPTG induced recombinant E. coli, GAD and β-gal constitute about 10-20% of the total bacterial protein. However, almost all of the GAD was in inclusion bodies, which could be isolated and extensively washed to obtain material that is about 80% GAD. We then did affinity purifications of GAD and β-gal on the basis of a hexa-histidine "tag" which was attached to GAD during the subcloning process. These extra histidine residues allow the rapid affinity purification (Novagen) of GAD by metal affinity chromatography (Hochuli, et al., Bio Technology, 6:1321-1325, 1988). The inclusion body material is solubilized in 6M guanidine hydrochloride (GHCL), 10 mm β-mercaptoethanol and 1% triton X-100. After binding to the column, the column was extensively washed with GHCL and 8M urea in phosphate buffers. Only the central peak GAD fraction was utilized for subsequent studies. Human GAD65 shares 96% amino acid sequence identity with murine GAD65, with most of the amino acid differences being conservative substitutions.
Breeder mice were purchased from Taconic Farms and housed under specific pathogen-free conditions. Only female NOD mice were used in this study. The average age of IDDM onset in unrelated females in the colony was 22 weeks. Insulitis is generally observed beginning at 4 weeks of age. T cell responses to GAD, HSP, CPH were found by 6 weeks in age. The incidence of IDDM in female mice is 70-90% by one year of age.
At 8 weeks of age, 25 ug GAD or control β-gal. was injected intraperftoneally (ip) in 100 ul of incomplete Freunds adjuvant (IFA). Because there may be a requirement for continual antigen presentation (Ramsdell, et al., Science, 257:1130-1133, 1992) mice were treated again every 6 weeks. Urine glucose levels were monitored twice weekly. After observing above normal glucose in urea, blood glucose levels were monitored twice weekly. Two consecutive blood glucose level readings of […] was considered as IDDM onset, after which the mice were sacrificed and spleen cells were tested as described above in Example 6 for evidence of spleen cell proliferation.

female NOD mice [4] = assay: Insulitis score after tolerance induction; type: in vivo; settings: Table 8A: i.v. injection at 3 weeks of age in PBS, examined at 12 weeks; scale 0-4; mean ± SE
Experimental: 1. In these experiments female NOD mice were intravenously injected at 3 weeks of age with 50 μg GAD, μ-galactosidase, mycobacterial hsp65 (m-hsp) or 0.1 μg of the immunodominant hsp peptide (hsp-p), in PBS. At 12 weeks of age, mice were examined for insulitis and autoantigen reactive T-cells. At this age both indications are established in untreated NOD mice. Pancreatic tissue sections were stained by immunoperoxidase techniques for insulin and were counterstained with hematoxylin. Insulitis was scored in a blinded manner by examining 54 to 87 islets on 5 interrupted tissue sections from each pancreas. Proliferative splenic T-cell responses induced by various antigens were performed as described above in Example 4. Data in Table 8 are expressed as the average [^3 H]-thymidine label (cpm) incorporated in triplicate cultures.
2. In a second set of experiments neonatal female NOD mice were injected intraperitoneally IFA with peptide 11, a mixture of peptides 34 and 35 plus IFA, or with IFA alone and at 12 weeks of age the mice were examined for insulitis and autoantigen reactive T-cells as in Example 6.1. Proliferative splenic T-cell responses induced by the various antigens were performed as in Example 4, and data in Table 8B are expressed as the average [^3 H]-thymidine label (cpm) incorporated in triplicate cultures.
3. In a third set of experiments female NOD mice were intravenously injected at three weeks of age with peptide 11 (control), a mixture of peptides 34 and 35 plus IFA, or with HEL peptides and at 12 weeks of age the mice were examined for insulitis and autoantigen reactive T-cells as in Example 6.1. Proliferative splenic T-cell responses induced by the various antigens were performed as in Example 4, and data in Table 8C are expressed as the average [^3 H]-thymidine label (cpm) incorporated in triplicate cultures.

[5] = system: spleen cells of treated female NOD mice; assay: Proliferative splenic T-cell responses to antigens after tolerance induction; type: in vivo; settings: Table 8A: i.v. at 3 weeks, tested at 12 weeks

T1 sequence (Q05329 whole entry): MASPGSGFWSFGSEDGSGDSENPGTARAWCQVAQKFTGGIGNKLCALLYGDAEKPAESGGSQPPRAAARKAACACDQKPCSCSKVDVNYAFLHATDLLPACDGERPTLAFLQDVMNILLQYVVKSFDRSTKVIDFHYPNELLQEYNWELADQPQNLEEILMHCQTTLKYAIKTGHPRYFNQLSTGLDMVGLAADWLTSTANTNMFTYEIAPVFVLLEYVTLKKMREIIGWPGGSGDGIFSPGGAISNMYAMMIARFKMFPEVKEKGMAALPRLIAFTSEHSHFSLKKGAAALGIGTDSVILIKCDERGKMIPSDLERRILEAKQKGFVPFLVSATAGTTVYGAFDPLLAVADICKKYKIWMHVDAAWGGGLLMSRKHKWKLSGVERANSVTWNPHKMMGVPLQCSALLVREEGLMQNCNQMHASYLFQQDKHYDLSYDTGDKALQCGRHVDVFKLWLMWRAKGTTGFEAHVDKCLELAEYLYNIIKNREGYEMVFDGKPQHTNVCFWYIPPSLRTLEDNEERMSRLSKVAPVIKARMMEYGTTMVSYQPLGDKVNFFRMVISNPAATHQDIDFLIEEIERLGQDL

CPH: bovine carboxypeptidase H, gift of L. Fricker [reference compound]
age at which the proliferative T-cell response to the antigen appeared (spleen cells of NOD mice): ≤ 8 weeks

bacterially produced GAD65: GAD65 expressed in bacteria, used to absorb patient sera
ability of the absorbed sera to recognize the 64 kD pancreatic polypeptide [1]: abolished

insulin: human insulin purchased from Eli Lilly [reference compound]
age at which the proliferative T-cell response to the antigen appeared (spleen cells of NOD mice): 12 weeks

segment B: human GAD65 amino acid residues 224-398, translated in vitro, 35S labeled
patients with antibodies reactive with the segment [2]: 41%

β-Gal.: E. coli β-galactosidase (control antigen) purified from recombinant bacteria by hexahistidine tag [reference compound]
mice that developed IDDM by 27 weeks in age (female NOD mice [3]; 25 ug ip in IFA at 8 weeks of age): 6/10
treated mice remaining disease free at 52 weeks of age (female NOD mice [3]; 25 ug ip in IFA at 8 weeks, 10 mice per group): 2
Insulitis Score (female NOD mice [4]): 2.6 ± 0.6
Spleen Cell Proliferation (SI ± SEM) CPH ([5]; recall antigen CPH): 11.5 ± 0.9 SI
Spleen Cell Proliferation (SI ± SEM) GAD ([5]; recall antigen GAD): 15.4 ± 1.8 SI
Spleen Cell Proliferation (SI ± SEM) GAD Peptides #17 ([5]; recall antigen GAD peptide #17): 5.1 ± 0.6 SI
Spleen Cell Proliferation (SI ± SEM) GAD Peptides #34 ([5]; recall antigen GAD peptide #34): 5.1 ± 0.6 SI
Spleen Cell Proliferation (SI ± SEM) GAD Peptides #35 ([5]; recall antigen GAD peptide #35): 4.0 ± 0.2 SI
Spleen Cell Proliferation (SI ± SEM) hsp Peptide ([5]; recall antigen hsp peptide): 6.6 ± 0.5 SI
Spleen Cell Proliferation (SI ± SEM) β-Gal ([5]; recall antigen β-Gal): 1.1 ± 0.1 SI

B1: segment A: human GAD65 amino acid residues 1-224, translated in vitro, 35S labeled (protein, UniProt Q05329 1-224, looked up, fragment)
chain: MASPGSGFWSFGSEDGSGDSENPGTARAWCQVAQKFTGGIGNKLCALLYGDAEKPAESGGSQPPRAAARKAACACDQKPCSCSKVDVNYAFLHATDLLPACDGERPTLAFLQDVMNILLQYVVKSFDRSTKVIDFHYPNELLQEYNWELADQPQNLEEILMHCQTTLKYAIKTGHPRYFNQLSTGLDMVGLAADWLTSTANTNMFTYEIAPVFVLLEYVTLKKM
modifications: 35S label
notes: human GAD65 amino acid residues 1-224, translated in vitro, 35S labeled
patients with antibodies reactive with the segment [2]: none

B2: segment C: human GAD65 amino acid residues 398-585, translated in vitro, 35S labeled (protein, UniProt Q05329 398-585, looked up, fragment)
chain: MGVPLQCSALLVREEGLMQNCNQMHASYLFQQDKHYDLSYDTGDKALQCGRHVDVFKLWLMWRAKGTTGFEAHVDKCLELAEYLYNIIKNREGYEMVFDGKPQHTNVCFWYIPPSLRTLEDNEERMSRLSKVAPVIKARMMEYGTTMVSYQPLGDKVNFFRMVISNPAATHQDIDFLIEEIERLGQDL
modifications: 35S label
notes: human GAD65 amino acid residues 398-585, translated in vitro, 35S labeled
patients with antibodies reactive with the segment [2]: 27%
